Measured values: ChEMBL document CHEMBL1130745, “Inhibitory effect and action mechanism of sesquiterpenes from Zedoariae Rhizoma on D-galactosamine/lipopolysaccharide-induced liver injury” (1998)

How the values were obtained:
Assay type in all cases: functional
[1] = organism: Mus musculus; assay: In vitro inhibitory activity on the production of nitric oxide (NO) induced by LPS in mouse peritoneal macrophages at a concentration of 10e-4 M
[2] = system: Mus musculus; assay: In vivo inhibitory activity on the increase of serum GOT induced by D-GalN / LPS (liver injury) in mice at 50 mg/kg peroral administration; conditions: route oral
[3] = organism: Rattus norvegicus; assay: In vitro hepatocytotoxicity induced by D-GalN in primary cultured rat hepatocytes at a concentration of 10e-4 M; conditions: Hepatocyte
[4] = system: Mus musculus; assay: In vivo inhibitory activity on the increase of serum GPT induced by D-GalN / LPS (liver injury) in mice at 50 mg/kg peroral administration; conditions: route oral
[5] = system: Mus musculus; assay: In vivo inhibitory activity on the increase of serum GOT induced by D-GalN / LPS (liver injury) in mice at 20 mg/kg peroral administration; conditions: route oral

| SMILES | inhibition at 100 µM [1] [%] | inhibition in vivo at 50 mg/kg [2] [%] | inhibition at 100 µM [3] [%] | inhibition in vivo at 50 mg/kg [4] [%] | inhibition in vivo at 20 mg/kg [5] [%] |
| --- | --- | --- | --- | --- | --- |
| CC(C)=C1CC2[C@@H](CC[C@]2(C)O)[C@](C)(O)CC1=O (some centres undefined) | 31.7 | 54.7 | -35.6 | 60.7 |  |
| C/C1=C\CC[C@]2(C)O[C@H]2C(=O)c2c(C)coc2C1 | -5 | 35.4 | -7.9 | 39.5 |  |
| C/C1=C\C/C(=C(/C)CO)C(=O)C/C(C)=C/CC1 | -14.6 | 21.5 | -21.7 | 36.1 |  |
| CC(C)=C1CC(=O)[C@@H](C)CC/C=C(\C)CC1=O | 53.7 | 46.2 | -6.3 | 49.7 |  |
| C/C1=C\CC[C@@H](C)C(=O)C[C@@H](C(C)C)C(=O)C1 | 41.9 | 58.4 | 44.6 | 59.3 |  |
| C[C@]12CCC(=O)C=C1CCC1[C@@H]2[C@@H](O)C[C@@]2(C)[C@H]1CC[C@]2(O)C(=O)CO (single isomer, unassigned) [HYDROCORTISONE] | 92.6 |  |  | 99 | 98.3 |
| C/C1=C\Cc2c(C)coc2C/C(C)=C/CC1 [ISOFURANODIENE] | 96.1 | 74.3 | -0.5 | 72.9 |  |
| COc1cc(/C=C/C(=O)CC(=O)/C=C/c2ccc(O)c(OC)c2)ccc1O [CURCUMIN] | 98.8 | 63.4 | -44.3 | 71.2 |  |
| C=C1CC(=O)C(=C(C)C)CC2[C@H]1CC[C@]2(C)O (some centres undefined) | 54.5 | 22.3 | -5.2 | 26.7 |  |
| CC1=CC2(O)O[C@@]3(CC2=C(C)C)[C@@H](C)CC[C@@H]13 (single isomer, unassigned) [CURCUMENOL] | 50.4 | 53.3 | 25.1 | 50.7 |  |
| C/C1=C\CC[C@H](C)C(=O)C[C@@H](C(C)C)C(=O)C1 | 2 | 74.6 | 77.1 | 76.6 |  |
| CC(C)=C1C/C=C(\C)CC/C=C(\C)CC1=O | 46.8 | 78.1 | 59.8 | 82.9 |  |
| C=C1CC2(O)O[C@@]3(CC2=C(C)C)[C@@H](C)CC[C@@H]13 (single isomer, unassigned) [ISOCURCUMENOL] | 36.5 | 80.2 | 14.2 | 77.3 |  |
| CC1=CC(=O)C(=C(C)C)CC2[C@@](C)(O)CC[C@]12O (some centres undefined) | -8.8 | 89.1 | -41.5 | 88 |  |
| CC(=O)CC[C@H]1[C@@H]2CC(=C(C)C)C(=O)C[C@]12C | 13 | 88 | -12.2 | 90.1 |  |
